Results on 30 compounds are retold here after ChEMBL document CHEMBL1139685, “Antimalarial activity of N-alkyl amine, carboxamide, sulfonamide, and urea derivatives of a dispiro-1,2,4-trioxolane piperidine” (Bioorg Med Chem Lett, 2006).

Data set [1] has as its system Plasmodium falciparum. As to the kind of experiment: Antimalarial activity against Plasmodium falciparum K1. It counts as functional, organism-based.
Data set [2] concerns Plasmodium falciparum. Nature of the data set: Antimalarial activity against Plasmodium falciparum NF54. In kind it is functional, organism-based.
The test system of data set [3] is Mus musculus. Nature of the data set: Survival of MORO mice (Mus musculus) infected with Plasmodium berghei at 10 mg/kg, perorally after 30 day post-infection. It counts as functional. Particulars: route oral.
Data set [4] concerns Mus musculus. As to the kind of experiment: Survival of MORO mice (Mus musculus) infected with Plasmodium berghei at 10 mg/kg, subcutaneously after 30 day post-infection. In kind it is functional. The settings on record: route subcutaneous.
Data set [5] deals with Plasmodium berghei. As to the kind of experiment: Antimalarial activity in Plasmodium berghei infected MORO mice (Mus musculus) at 10 mg/kg peroral dose. It counts as functional. Particulars: route oral.
Data set [6] has as its system Plasmodium berghei. Nature of the data set: Antimalarial activity in Plasmodium berghei infected MORO mice (Mus musculus) at 10 mg/kg subcutaneous dose. It counts as functional.
A short description of data set [7]: Lipophilicity, LogD at pH 7.4. In kind it is physicochemical. Particulars: buffer.
The nature of data set [8]: Partition coefficient, logP of the compound. In kind it is physicochemical. Particulars: octanol/water.

Values after ≈ are worked out from the molar mass of the structure shown.

Broadly, the IC50 is the point on the concentration scale where inhibition reaches its midpoint. With `COCC(=O)N1CC[C@]2(CC1)OO[C@]1(O2)C2CC3CC(C2)CC1C3`, the IC50 in data set [1] worked out at 0.95 ng/mL (≈ 2.82 nM); in data set [2] it was 0.2 ng/mL (≈ 0.593 nM). For the same compound, the Activity in data set [3] and in data set [4] was 7.3 days throughout.
By logD is commonly meant lipophilicity at a set pH, counting ionised and neutral species. For `C1CC2(CCN1)OOC1(O2)C2CC3CC(C2)CC1C3.Cl` (centres undefined), the IC50 came out at 0.15 ng/mL in data set [1] and 0.34 ng/mL in data set [2]. Moreover, the Activity is 59% in data set [5], 84% in data set [6], 6.3 days in data set [3] and 7.7 days in data set [4]. In data set [7], this compound displayed a log distribution coefficient (logD) of 0.25.
A word on the logP: it is the decadic logarithm of the partition coefficient of the neutral form, usually between octanol and water. High values mean a more lipophilic compound, low ones a more hydrophilic compound. As for `O=S(=O)(c1ccccc1)N1CCC2(CC1)OOC1(O2)C2CC3CC(C2)CC1C3` (centres undefined), the IC50 turned out to be 1.1 ng/mL (≈ 2.71 nM) in data set [1] and 1.2 ng/mL (≈ 2.96 nM) in data set [2]. Besides, the Activity in data set [5] was 71%; in data set [6] it was over 99.99%; in data set [3] it was 6 days; in data set [4] it was 10.3 days. In data set [8], this compound showed a logP of 5.5.
As for `C1CCC2(CC1)OOC1(O2)C2CC3CC(C2)CC1C3` (centres undefined), the IC50 is 0.97 ng/mL (≈ 3.67 nM) in data set [1] and 1.4 ng/mL (≈ 5.3 nM) in data set [2]. Moreover, the Activity was 94% in data set [5], over 99.99% in data set [6], 7.2 days in data set [3] and 11.9 days in data set [4]. The logP in data set [8] is 6.1.
As for `O=C(CO)N1CCC2(CC1)OOC1(O2)C2CC3CC(C2)CC1C3` (centres undefined), the IC50 in data set [1] worked out at 0.3 ng/mL (≈ 0.928 nM); in data set [2], 0.6 ng/mL (≈ 1.86 nM). In addition, the Activity stood at 92% in data set [5], 99.8% in data set [6], 7 days in data set [3] and 8 days in data set [4]. For the same compound, in data set [8], the logP turned out to be 2.4.
For `O=C(N1CCOCC1)N1CCC2(CC1)OOC1(O2)C2CC3CC(C2)CC1C3` (centres undefined), the Activity in data set [3] amounted to 8.7 days; in data set [4], 9 days.
Turning to `O=C(O)CCC(=O)N1CCC2(CC1)OOC1(O2)C2CC3CC(C2)CC1C3` (centres undefined), the IC50 in data set [1] is 7.1 ng/mL (≈ 19.4 nM); in data set [2] it was 7.2 ng/mL (≈ 19.7 nM). Also, the Activity amounted to 39% in data set [5], 52% in data set [6], 6 days in data set [3] and 6.3 days in data set [4]. In addition, in data set [8], the logP turned out to be 2.3.
Turning to `O=C(O)c1ccccc1C(=O)N1CCC2(CC1)OOC1(O2)C2CC3CC(C2)CC1C3` (centres undefined), the figures for the concentration for half-maximal inhibition (IC50) in data set [1] and in data set [2] were 22 ng/mL (≈ 53.2 nM) and 13 ng/mL (≈ 31.4 nM), respectively. Moreover, the Activity in data set [3] and in data set [4] was 6.3 days throughout. The logD in data set [7] turned out to be 1.2.
As to `NC(=O)N1CCC2(CC1)OOC1(O2)C2CC3CC(C2)CC1C3` (centres undefined), the values for the Activity in data set [3] and in data set [4] were 8.3 days and 8.7 days, respectively.
`CC(C)(C)NC(=O)N1CCC2(CC1)OOC1(O2)C2CC3CC(C2)CC1C3` (centres undefined): the IC50 was 0.98 ng/mL (≈ 2.69 nM) in data set [1] and 1.8 ng/mL (≈ 4.94 nM) in data set [2]. The results for the Activity in data set [3] and in data set [4] were 6.7 days and 9.7 days, respectively.
In the case of `CCS(=O)(=O)CCN1CCC2(CC1)OOC1(O2)C2CC3CC(C2)CC1C3` (centres undefined), the figures for the IC50 in data set [1] and in data set [2] were 1 ng/mL (≈ 2.59 nM) and 2.9 ng/mL (≈ 7.52 nM), respectively. Moreover, the figures for the Activity in data set [3] and in data set [4] were 7 days and 8 days, respectively. The compound also yielded a logD in data set [7] of 2.3.
For the compound `Cc1ccc(NC(=O)N2CCC3(CC2)OOC2(O3)C3CC4CC(C3)CC2C4)cc1` (centres undefined), the IC50 in data set [1] and in data set [2] was 2.3 ng/mL (≈ 5.77 nM) in each case. The Activity is 6 days in data set [3] and 14.3 days in data set [4].
On to `CN1CCN(C(=O)N2CCC3(CC2)OOC2(O3)C3CC4CC(C3)CC2C4)CC1` (centres undefined), for which the IC50 was determined as 0.2 ng/mL (≈ 0.511 nM) in data set [1] and 0.22 ng/mL (≈ 0.562 nM) in data set [2]. Further, the figures for the Activity in data set [3] and in data set [4] were 7.3 days and 8.3 days, respectively. Also, the logD in data set [7] turned out to be 2.6.
Consider `CCS(=O)(=O)N1CCC2(CC1)OOC1(O2)C2CC3CC(C2)CC1C3` (centres undefined), for which the IC50 in data set [1] is 0.38 ng/mL (≈ 1.06 nM); in data set [2] it was 0.81 ng/mL (≈ 2.27 nM). The Activity is 85% in data set [5], 99.94% in data set [6], 7 days in data set [3] and 9.3 days in data set [4].
For the compound `O=S(=O)(Cc1ccccc1)N1CCC2(CC1)OOC1(O2)C2CC3CC(C2)CC1C3` (centres undefined), the values for the half-maximal inhibitory concentration (IC50) in data set [1] and in data set [2] were 1.7 ng/mL (≈ 4.05 nM) and 4.1 ng/mL (≈ 9.77 nM), respectively. The results for the Activity in data set [3] and in data set [4] were 5.7 days and 8 days, respectively.
Turning to `c1ccc(CN2CCC3(CC2)OOC2(O3)C3CC4CC(C3)CC2C4)cc1` (centres undefined), the IC50 in data set [1] worked out at 2.5 ng/mL (≈ 7.03 nM); in data set [2], 2.6 ng/mL (≈ 7.31 nM). In addition, the Activity in data set [3] was determined as 6 days; in data set [4], 10 days. The compound further registered a logD in data set [7] of 3.5.
Regarding `CN(C)C(=O)N1CCC2(CC1)OOC1(O2)C2CC3CC(C2)CC1C3` (centres undefined), the 50% inhibitory concentration (IC50) in data set [1] turned out to be 0.7 ng/mL (≈ 2.08 nM). Moreover, the Activity in data set [3] and in data set [4] was 7 days each time.
Turning to `O=C(Nc1ccc(Cl)cc1)N1CCC2(CC1)OOC1(O2)C2CC3CC(C2)CC1C3` (centres undefined), the figures for the Activity in data set [3] and in data set [4] were 6 days and 13.7 days, respectively.
For `CO[C@H]1O[C@@H]2O[C@@]3(C)CC[C@H]4[C@H](C)CC[C@@H]([C@H]1C)[C@@]24OO3`, the values for the half-inhibitory concentration (IC50) in data set [1] and in data set [2] were 0.74 ng/mL (≈ 2.48 nM) and 1.2 ng/mL (≈ 4.02 nM), respectively. Further, the Activity in data set [5] was determined as 98%; in data set [6] it was 99.78%; in data set [3], 7.9 days; in data set [4] it was 9.1 days. The same compound yielded a logP in data set [8] of 3.3.
Turning to `CC(=O)Nc1ccc(S(=O)(=O)N2CCC3(CC2)OOC2(O3)C3CC4CC(C3)CC2C4)cc1` (centres undefined), the IC50 in data set [1] was found to be 1.4 ng/mL (≈ 3.03 nM); in data set [2] it was 0.5 ng/mL (≈ 1.08 nM). Also, the Activity in data set [3] was 6.3 days; in data set [4], 12 days.
For `CC(=O)N1CCC2(CC1)OOC1(O2)C2CC3CC(C2)CC1C3` (centres undefined), the figures for the IC50 in data set [1] and in data set [2] were 0.82 ng/mL (≈ 2.67 nM) and 0.93 ng/mL (≈ 3.03 nM), respectively. Besides, the Activity was 81% in data set [5], 85% in data set [6], 6.7 days in data set [3] and 7.3 days in data set [4]. Moreover, in data set [8], the logP came out at 3.8.
With `CC(C)(C)CC(=O)N1CCC2(CC1)OOC1(O2)C2CC3CC(C2)CC1C3` (centres undefined), the Activity in data set [3] was found to be 7.7 days; in data set [4], 8.3 days.
In the case of `c1cc(CN2CCC3(CC2)OOC2(O3)C3CC4CC(C3)CC2C4)ccn1` (centres undefined), the IC50 in data set [1] turned out to be 0.4 ng/mL (≈ 1.12 nM); in data set [2], 0.67 ng/mL (≈ 1.88 nM). Moreover, the Activity in data set [3] is 6.3 days; in data set [4] it was 11 days. The logD in data set [7] was found to be 2.7.
For `O=C(Nc1ccccc1)N1CCC2(CC1)OOC1(O2)C2CC3CC(C2)CC1C3` (centres undefined), the Activity in data set [3] was determined as 7 days; in data set [4] it was 19.7 days.
As to `O=C(c1ccncc1)N1CCC2(CC1)OOC1(O2)C2CC3CC(C2)CC1C3` (centres undefined), the Activity in data set [3] was determined as 6.7 days; in data set [4] it was 7 days.
Turning to `CC(C)N(C(=O)N1CCC2(CC1)OOC1(O2)C2CC3CC(C2)CC1C3)C(C)C` (centres undefined), the IC50 in data set [2] stood at 6.6 ng/mL (≈ 16.8 nM). The Activity was 8.3 days in data set [3] and 20.3 days in data set [4].
Consider `CS(=O)(=O)N1CCC2(CC1)OOC1(O2)C2CC3CC(C2)CC1C3` (centres undefined), for which the values for the concentration for half-maximal inhibition (IC50) in data set [1] and in data set [2] were 0.59 ng/mL (≈ 1.72 nM) and 0.64 ng/mL (≈ 1.86 nM), respectively. In addition, the Activity in data set [5] is 93%; in data set [6], 99.97%; in data set [3], 6.7 days; in data set [4], 10.3 days.
As to `O=C(c1ccccc1)N1CCC2(CC1)OOC1(O2)C2CC3CC(C2)CC1C3` (centres undefined), the IC50 in data set [1] was found to be 0.35 ng/mL (≈ 0.947 nM); in data set [2] it was 0.58 ng/mL (≈ 1.57 nM). The Activity in data set [5] came out at 93%; in data set [6], 99.9%; in data set [3] it was 7 days; in data set [4], 8.7 days. The compound further came in with a lipophilicity (logP) in data set [8] of 5.6.
Consider `O=C(N1CCCC1)N1CCC2(CC1)OOC1(O2)C2CC3CC(C2)CC1C3` (centres undefined), for which the IC50 in data set [1] stood at 3.9 ng/mL (≈ 10.8 nM); in data set [2], 6.7 ng/mL (≈ 18.5 nM). Besides, the Activity in data set [3] worked out at 7.3 days; in data set [4], 9.7 days.
`C[C@H]1[C@H](OC(=O)CCC(=O)O)O[C@@H]2O[C@@]3(C)CC[C@H]4[C@H](C)CC[C@@H]1[C@@]24OO3` [ARTESUNATE]: the Activity in data set [5] worked out at 65%; in data set [6] it was 65%; in data set [3], 6.8 days; in data set [4] it was 6.8 days.
